pIC50: −log10 of the molar value.
Assays:
Experiment in all cases: cells
Conditions in all cases: Homo sapiens
[1] = system: DEL; format: functional, cell-based;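 also: growth inhibition of the human DEL cell line, read out with a cell viability assay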
Description: SANGER: Inhibition of human DEL cell growth in a cell viability assay.

[2] = system: DMS-114; format: functional, cell-based
[3] = system: DOHH-2; format: functional, cell-based;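 also: growth inhibition of human DOHH-2 cells, read out with a cell viability assay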
Description: SANGER: Inhibition of human DOHH-2 cell growth in a cell viability assay.

[4] = system: EKVX; format: functional, cell-based;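 also: growth inhibition of human EKVX cells, read out with a cell viability assay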
Description: SANGER: Inhibition of human EKVX cell growth in a cell viability assay.

[5] = system: ES4; format: functional, cell-based;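 also: growth inhibition of human ES4 cells, read out by a cell viability assay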
Description: SANGER: Inhibition of human ES4 cell growth in a cell viability assay.

[6] = system: EW-1; format: functional, cell-based;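 also: growth inhibition of the human EW-1 cell line, read out by a cell viability assay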
Description: SANGER: Inhibition of human EW-1 cell growth in a cell viability assay.

[7] = system: EW-13; format: functional, cell-based;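 also: growth inhibition of EW-13 cells, read out with a cell viability assay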
Description: SANGER: Inhibition of human EW-13 cell growth in a cell viability assay.

[8] = system: EW-16; format: functional, cell-based;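 also: growth inhibition of human EW-16 cells, read out as cell viability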
Description: SANGER: Inhibition of human EW-16 cell growth in a cell viability assay.

[9] = system: EW-18; format: functional, cell-based;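 also: growth inhibition of EW-18 cells, read out by a cell viability assay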
Description: SANGER: Inhibition of human EW-18 cell growth in a cell viability assay.

[10] = system: GI-1; format: functional, cell-based;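 also: growth inhibition of human GI-1 cells, measured with a cell viability readout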
Description: SANGER: Inhibition of human GI-1 cell growth in a cell viability assay.

[11] = system: GI-ME-N; format: functional, cell-based;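 also: growth inhibition of human GI-ME-N cells, read out with a cell viability assay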
Description: SANGER: Inhibition of human GI-ME-N cell growth in a cell viability assay.

[12] = system: HCC1187; format: functional, cell-based;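 also: growth inhibition of HCC1187 cells, read out with a cell viability assay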
Description: SANGER: Inhibition of human HCC1187 cell growth in a cell viability assay.

[13] = system: HDLM-2; format: functional, cell-based;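 also: cell viability assay measuring suppression of HDLM-2 proliferation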
Description: SANGER: Inhibition of human HDLM-2 cell growth in a cell viability assay.

[14] = system: HL-60; format: functional, cell-based;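 also: growth inhibition of human HL-60 cells, read out with a cell viability assay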
Description: SANGER: Inhibition of human HL-60 cell growth in a cell viability assay.

[15] = system: HT-144; format: functional, cell-based
Description: SANGER: Inhibition of human HT-144 cell growth in a cell viability assay.

[16] = system: IA-LM; format: functional, cell-based;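 also: cell viability assay measuring growth inhibition of human IA-LM cells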
Description: SANGER: Inhibition of human IA-LM cell growth in a cell viability assay.

[17] = system: JVM-3; format: functional, cell-based;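 also: growth inhibition of human JVM-3 cells, read out with a cell viability assay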
Description: SANGER: Inhibition of human JVM-3 cell growth in a cell viability assay.

[18] = system: KARPAS-45; format: functional, cell-based;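 also: inhibition of cell line growth, read out through a viability assay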
Description: SANGER: Inhibition of human KARPAS-45 cell growth in a cell viability assay.

[19] = system: KLE; format: functional, cell-based;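 also: growth inhibition of human KLE cells, read out with a cell viability assay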
Description: SANGER: Inhibition of human KLE cell growth in a cell viability assay.

[20] = system: KMOE-2; format: functional, cell-based;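 also: growth inhibition of human KMOE-2 cells, read out with a cell viability assay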
Description: SANGER: Inhibition of human KMOE-2 cell growth in a cell viability assay.

[21] = system: KP-N-YS; format: functional, cell-based;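 also: cell viability assay measuring inhibition of cell line growth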
Description: SANGER: Inhibition of human KP-N-YS cell growth in a cell viability assay.

[22] = system: L-363; format: functional, cell-based
Description: SANGER: Inhibition of human L-363 cell growth in a cell viability assay.

[23] = system: L-428; format: functional, cell-based
Description: SANGER: Inhibition of human L-428 cell growth in a cell viability assay.

[24] = system: LAMA-84; format: functional, cell-based;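 also: growth inhibition of LAMA-84 cells, read out with a cell viability assay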
Description: SANGER: Inhibition of human LAMA-84 cell growth in a cell viability assay.

[25] = system: LU-134-A; format: functional, cell-based
Description: SANGER: Inhibition of human LU-134-A cell growth in a cell viability assay.

[26] = system: MC116; format: functional, cell-based;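 also: growth inhibition of MC116 cells, read out with a cell viability assay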
Description: SANGER: Inhibition of human MC116 cell growth in a cell viability assay.

[27] = system: MEG-01; format: functional, cell-based;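 also: growth inhibition of MEG-01 cells, read out by a cell viability assay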
Description: SANGER: Inhibition of human MEG-01 cell growth in a cell viability assay.

[28] = system: MHH-NB-11; format: functional, cell-based;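 also: growth inhibition of human MHH-NB-11 cells, read out by a cell viability assay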
Description: SANGER: Inhibition of human MHH-NB-11 cell growth in a cell viability assay.

[29] = system: MMAC-SF; format: functional, cell-based;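 also: growth inhibition of human MMAC-SF cells, read out with a cell viability assay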
Description: SANGER: Inhibition of human MMAC-SF cell growth in a cell viability assay.

[30] = system: MOLT-16; format: functional, cell-based;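 also: growth inhibition of human MOLT-16 cells, read out with a cell viability assay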
Description: SANGER: Inhibition of human MOLT-16 cell growth in a cell viability assay.

[31] = system: MZ1-PC; format: functional, cell-based;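 also: cell viability assay measuring growth inhibition of human MZ1-PC cells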
Description: SANGER: Inhibition of human MZ1-PC cell growth in a cell viability assay.

[32] = system: MZ2-MEL; format: functional, cell-based;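 also: growth inhibition of MZ2-MEL cells read out with a cell viability assay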
Description: SANGER: Inhibition of human MZ2-MEL cell growth in a cell viability assay.

[33] = system: MZ7-mel; format: functional, cell-based;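 also: growth inhibition of human MZ7-mel cells, measured by a cell viability assay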
Description: SANGER: Inhibition of human MZ7-mel cell growth in a cell viability assay.

[34] = system: Mo; format: functional, cell-based
Description: SANGER: Inhibition of human Mo-T cell growth in a cell viability assay.

[35] = system: NB10; format: functional, cell-based;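 also: growth inhibition of NB10 cells, read out by a cell viability assay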
Description: SANGER: Inhibition of human NB10 cell growth in a cell viability assay.

[36] = system: NB69; format: functional, cell-based;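 also: growth inhibition of NB69 cells, determined by a cell viability assay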
Description: SANGER: Inhibition of human NB69 cell growth in a cell viability assay.

[37] = system: NCI-H1304; format: functional, cell-based;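 also: growth inhibition of the cancer cell line, measured in a cell viability assay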
Description: SANGER: Inhibition of human NCI-H1304 cell growth in a cell viability assay.

[38] = system: NCI-H1395; format: functional, cell-based;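 also: cell viability assay read-out quantifying reduced proliferation of human NCI-H1395 cells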
Description: SANGER: Inhibition of human NCI-H1395 cell growth in a cell viability assay.

[39] = system: NCI-H1581; format: functional, cell-based;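 also: cell growth inhibition read out by a viability assay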
Description: SANGER: Inhibition of human NCI-H1581 cell growth in a cell viability assay.

[40] = system: NCI-H209; format: functional, cell-based;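 also: growth inhibition of human NCI-H209 cells, measured by a cell viability assay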
Description: SANGER: Inhibition of human NCI-H209 cell growth in a cell viability assay.

[41] = system: NCI-H526; format: functional, cell-based;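 also: growth inhibition of the human NCI-H526 cell line, measured by a cell viability assay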
Description: SANGER: Inhibition of human NCI-H526 cell growth in a cell viability assay.

[42] = system: NCI-H747; format: functional, cell-based;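 also: growth inhibition of human NCI-H747 cells, read out by a cell viability assay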
Description: SANGER: Inhibition of human NCI-H747 cell growth in a cell viability assay.

[43] = system: SNU-5; format: functional, cell-based;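 also: cell viability readout used to measure growth inhibition in human NCI-SNU-5 cells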
Description: SANGER: Inhibition of human NCI-SNU-5 cell growth in a cell viability assay.

[44] = system: NH-12; format: functional, cell-based;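 also: growth inhibition of NH-12 cells, read out with a cell viability assay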
Description: SANGER: Inhibition of human NH-12 cell growth in a cell viability assay.

[45] = system: ONS-76; format: functional, cell-based;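 also: growth inhibition of human ONS-76 cells, read out with a cell viability assay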
Description: SANGER: Inhibition of human ONS-76 cell growth in a cell viability assay.

[46] = system: OVCAR-4; format: functional, cell-based;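 also: growth inhibition of human OVCAR-4 cells, measured with a cell viability assay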
Description: SANGER: Inhibition of human OVCAR-4 cell growth in a cell viability assay.

[47] = system: RKO; format: functional, cell-based;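 also: growth inhibition of human RKO cells, read out with a cell viability assay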
Description: SANGER: Inhibition of human RKO cell growth in a cell viability assay.

[48] = system: Ramos-2G6-4C10; format: functional, cell-based;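 also: growth inhibition of the cell line, measured by a cell viability read-out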
Description: SANGER: Inhibition of human Ramos-2G6-4C10 cell growth in a cell viability assay.

[49] = system: SF-539; format: functional, cell-based;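 also: Read-out is a cell viability assay, with IC50 reflecting inhibition of cell growth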
Description: SANGER: Inhibition of human SF539 cell growth in a cell viability assay.

[50] = system: SJSA-1; format: functional, cell-based;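 also: growth inhibition of human SJSA-1 cells, read out through a cell viability measurement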
Description: SANGER: Inhibition of human SJSA-1 cell growth in a cell viability assay.

[51] = system: SK-MEL-1; format: functional, cell-based;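 also: growth inhibition of human SK-MEL-1 cells, read out by a cell viability assay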
Description: SANGER: Inhibition of human SK-MEL-1 cell growth in a cell viability assay.

[52] = system: SK-N-FI; format: functional, cell-based;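 also: cell viability assay measuring growth inhibition of human SK-N-FI cells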
Description: SANGER: Inhibition of human SK-N-FI cell growth in a cell viability assay.

[53] = system: SK-NEP-1; format: functional, cell-based;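 also: growth inhibition of human SK-NEP-1 cells, read out by a cell viability assay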
Description: SANGER: Inhibition of human SK-NEP-1 cell growth in a cell viability assay.

[54] = system: SK-PN-DW; format: functional, cell-based;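 also: growth inhibition measured with a viability assay on these cells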
Description: SANGER: Inhibition of human SK-PN-DW cell growth in a cell viability assay.

[55] = system: A101D; format: functional, cell-based;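 also: growth inhibition of the cell line, measured with a viability assay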
Description: SANGER: Inhibition of human A101D cell growth in a cell viability assay.

[56] = system: A388; format: functional, cell-based
Description: SANGER: Inhibition of human A388 cell growth in a cell viability assay.

[57] = system: ATN-1; format: functional, cell-based
Description: SANGER: Inhibition of human ATN-1 cell growth in a cell viability assay.

[58] = system: BB30-HNC; format: functional, cell-based
Description: SANGER: Inhibition of human BB30-HNC cell growth in a cell viability assay.

[59] = system: Becker; format: functional, cell-based
Description: SANGER: Inhibition of human Becker cell growth in a cell viability assay.

[60] = system: TE-10; format: functional, cell-based
Description: SANGER: Inhibition of human TE-10 cell growth in a cell viability assay.

[61] = system: TE-6; format: functional, cell-based
Description: SANGER: Inhibition of human TE-6 cell growth in a cell viability assay.

[62] = system: TGBC24TKB; format: functional, cell-based
Description: SANGER: Inhibition of human TGBC24TKB cell growth in a cell viability assay.

[63] = system: U-87 MG; format: functional, cell-based, U-87MG ATCC
Description: SANGER: Inhibition of human U-87-MG cell growth in a cell viability assay.

[64] = system: UACC-257; format: functional, cell-based
Description: SANGER: Inhibition of human UACC-257 cell growth in a cell viability assay.

[65] = system: CAS-1; format: functional, cell-based
Description: SANGER: Inhibition of human CAS-1 cell growth in a cell viability assay.

[66] = system: COLO-320-HSR; format: functional, cell-based
Description: SANGER: Inhibition of human COLO-320-HSR cell growth in a cell viability assay.

Measured: pIC50

N#C/C(=C1/Nc2ccccc2S1)c1ccnc(NCCc2cccnc2)n1
5.50: [26]
5.22: [42]
5.74: [12]
5.65: [55] | [60]
5.43: [10]
5.56: [16]
5.86: [30]
5.20: [1] | [18]
5.36: [59]
5.64: [47]
5.24: [46]
5.30: [8]
< 5.10: all other assays above

Cn1cc(/C=C2\C(=O)Nc3cccnc32)c2ccccc21
5.82: [64]
< 5.70: all other assays above

From ChEMBL document CHEMBL1201861, “Genomics of Drug Sensitity in Cancer screening data, Wellcome Trust Sanger Institute”
